From ChEMBL document CHEMBL3132769, “Fragment growing to retain or alter the selectivity of anchored kinase hinge-binding fragments” (Medchemcomm, 2014)

Assays:
[1] = molecular target: Protein kinase C beta type (Homo sapiens) (UniProt P05771); experiment: Inhibition of human truncated PKC beta1 expressed in baculovirus assessed as substrate phosphorylation using fluorescence-labelled peptides as substrate at 95 uM after 90 mins by microfluidic peptide phosphorylation assay
[2] = molecular target: Tyrosine-protein kinase ABL2 (Homo sapiens) (UniProt P42684); experiment: Inhibition of human truncated Arg expressed in baculovirus assessed as substrate phosphorylation using fluorescence-labelled peptides as substrate at 0.2 uM after 90 mins by microfluidic peptide phosphorylation assay
Tyrosine-protein kinase ABL2 (Homo sapiens), sequence (P42684 whole entry, the tested form may be a part): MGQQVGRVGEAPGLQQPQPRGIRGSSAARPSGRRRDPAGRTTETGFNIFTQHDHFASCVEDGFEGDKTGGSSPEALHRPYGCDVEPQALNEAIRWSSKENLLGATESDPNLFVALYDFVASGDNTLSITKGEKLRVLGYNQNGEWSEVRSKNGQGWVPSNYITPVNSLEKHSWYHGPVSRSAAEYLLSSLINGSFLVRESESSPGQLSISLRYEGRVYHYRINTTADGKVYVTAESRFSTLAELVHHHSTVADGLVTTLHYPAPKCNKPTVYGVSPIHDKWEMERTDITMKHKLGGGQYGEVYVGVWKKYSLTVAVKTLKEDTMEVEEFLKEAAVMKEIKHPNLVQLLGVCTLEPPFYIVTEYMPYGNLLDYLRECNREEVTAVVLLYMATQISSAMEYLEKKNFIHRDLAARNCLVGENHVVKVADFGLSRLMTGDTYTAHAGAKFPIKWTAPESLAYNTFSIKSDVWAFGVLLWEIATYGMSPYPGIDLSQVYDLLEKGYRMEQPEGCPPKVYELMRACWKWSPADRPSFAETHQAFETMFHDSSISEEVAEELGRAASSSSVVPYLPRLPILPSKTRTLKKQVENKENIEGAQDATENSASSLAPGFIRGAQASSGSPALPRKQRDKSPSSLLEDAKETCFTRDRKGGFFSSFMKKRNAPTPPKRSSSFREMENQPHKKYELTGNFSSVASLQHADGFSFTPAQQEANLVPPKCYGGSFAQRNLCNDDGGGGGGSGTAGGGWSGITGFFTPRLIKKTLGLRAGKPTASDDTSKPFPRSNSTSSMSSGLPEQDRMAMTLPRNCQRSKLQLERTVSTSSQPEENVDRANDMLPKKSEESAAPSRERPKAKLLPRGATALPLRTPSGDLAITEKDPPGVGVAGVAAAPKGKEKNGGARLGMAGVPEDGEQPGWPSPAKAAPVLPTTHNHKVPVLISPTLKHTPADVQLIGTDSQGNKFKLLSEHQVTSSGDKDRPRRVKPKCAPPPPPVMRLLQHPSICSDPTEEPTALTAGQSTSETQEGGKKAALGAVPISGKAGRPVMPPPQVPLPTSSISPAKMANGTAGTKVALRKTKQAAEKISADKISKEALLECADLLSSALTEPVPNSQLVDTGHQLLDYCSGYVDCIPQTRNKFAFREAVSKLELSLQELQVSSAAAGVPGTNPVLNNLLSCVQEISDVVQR

[3] = molecular target: T1, Serine/threonine-protein kinase DCLK2 (Homo sapiens) (UniProt Q8N568); experiment: Inhibition of human full length DCAMKL2 expressed in baculovirus assessed as substrate phosphorylation using fluorescence-labelled peptides as substrate at 0.2 uM after 90 mins by microfluidic peptide phosphorylation assay
T1 sequence (whole entry): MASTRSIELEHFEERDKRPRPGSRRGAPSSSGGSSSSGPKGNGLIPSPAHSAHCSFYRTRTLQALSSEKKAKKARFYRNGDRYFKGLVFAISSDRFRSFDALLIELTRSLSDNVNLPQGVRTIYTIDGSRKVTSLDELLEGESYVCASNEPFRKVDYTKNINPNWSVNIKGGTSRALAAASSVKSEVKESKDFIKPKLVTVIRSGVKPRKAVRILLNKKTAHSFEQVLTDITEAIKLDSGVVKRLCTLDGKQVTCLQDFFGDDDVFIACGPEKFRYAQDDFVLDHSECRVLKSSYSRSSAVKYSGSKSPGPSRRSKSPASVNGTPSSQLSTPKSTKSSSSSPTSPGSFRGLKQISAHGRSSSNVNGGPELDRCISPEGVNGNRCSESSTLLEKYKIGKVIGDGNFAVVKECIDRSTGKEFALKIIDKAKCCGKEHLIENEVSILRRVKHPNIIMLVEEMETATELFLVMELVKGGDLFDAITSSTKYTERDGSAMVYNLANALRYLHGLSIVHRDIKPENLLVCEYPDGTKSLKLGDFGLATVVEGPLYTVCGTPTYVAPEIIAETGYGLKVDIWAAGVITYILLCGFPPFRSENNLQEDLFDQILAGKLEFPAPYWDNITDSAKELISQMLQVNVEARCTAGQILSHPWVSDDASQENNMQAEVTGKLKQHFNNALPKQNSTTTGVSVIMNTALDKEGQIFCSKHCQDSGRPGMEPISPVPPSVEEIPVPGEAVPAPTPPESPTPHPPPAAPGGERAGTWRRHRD

[4] = molecular target: MAP/microtubule affinity-regulating kinase 3 (Homo sapiens) (UniProt P27448); experiment: Inhibition of human full length c-TAK1 expressed in Escherichia coli cell assessed as substrate phosphorylation using fluorescence-labelled peptides as substrate at 8 uM after 90 mins by microfluidic peptide phosphorylation assay
[5] = system: Fibroblast growth factor receptor 2 (Homo sapiens), P21802 [N549H]; experiment: Inhibition of human FGFR2 N549H mutant catalytic domain expressed in baculovirus assessed as substrate phosphorylation using fluorescence-labelled peptides as substrate at 8 uM after 90 mins by microfluidic peptide phosphorylation assay
[6] = molecular target: Serine/threonine-protein kinase pim-1 (Homo sapiens) (UniProt P11309); experiment: Inhibition of human full length PIM1 expressed in baculovirus assessed as substrate phosphorylation using fluorescence-labelled peptides as substrate at 2 uM after 90 mins by microfluidic peptide phosphorylation assay
Serine/threonine-protein kinase pim-1 (Homo sapiens), sequence (P11309 whole entry, looked up, the tested form may be a part): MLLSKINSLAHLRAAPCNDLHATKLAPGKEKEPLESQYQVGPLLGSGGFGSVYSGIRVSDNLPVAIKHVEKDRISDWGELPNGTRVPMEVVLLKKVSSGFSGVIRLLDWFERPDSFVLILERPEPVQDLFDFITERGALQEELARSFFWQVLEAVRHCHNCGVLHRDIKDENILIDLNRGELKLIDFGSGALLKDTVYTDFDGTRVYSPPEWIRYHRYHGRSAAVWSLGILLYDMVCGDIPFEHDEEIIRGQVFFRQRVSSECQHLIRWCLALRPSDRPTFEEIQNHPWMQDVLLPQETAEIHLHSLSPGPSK

[7] = molecular target: Protein kinase C eta type (Homo sapiens) (UniProt P24723); experiment: Inhibition of human truncated PKC eta expressed in baculovirus assessed as substrate phosphorylation using fluorescence-labelled peptides as substrate at 1000 uM after 90 mins by microfluidic peptide phosphorylation assay
[8] = molecular target: T2, Interleukin-1 receptor-associated kinase 4 (Homo sapiens) (UniProt Q9NWZ3); experiment: Inhibition of human IRAK4 catalytic domain expressed in baculovirus assessed as substrate phosphorylation using fluorescence-labelled peptides as substrate at 1000 uM after 90 mins by microfluidic peptide phosphorylation assay
T2 sequence (whole entry): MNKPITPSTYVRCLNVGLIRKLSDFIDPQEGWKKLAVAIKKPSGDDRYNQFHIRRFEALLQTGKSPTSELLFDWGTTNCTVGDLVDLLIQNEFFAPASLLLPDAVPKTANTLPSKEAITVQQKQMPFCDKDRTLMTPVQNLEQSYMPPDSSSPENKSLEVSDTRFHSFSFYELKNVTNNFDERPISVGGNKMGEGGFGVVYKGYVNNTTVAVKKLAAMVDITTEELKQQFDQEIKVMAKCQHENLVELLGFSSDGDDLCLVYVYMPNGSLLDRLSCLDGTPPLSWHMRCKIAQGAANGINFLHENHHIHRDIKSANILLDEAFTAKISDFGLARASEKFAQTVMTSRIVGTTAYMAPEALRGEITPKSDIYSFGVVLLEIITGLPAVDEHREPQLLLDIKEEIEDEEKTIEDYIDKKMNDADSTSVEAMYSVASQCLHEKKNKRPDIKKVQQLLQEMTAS

[9] = molecular target: Tyrosine-protein kinase BTK (Homo sapiens) (UniProt Q06187); experiment: Inhibition of human full length BTK expressed in baculovirus assessed as substrate phosphorylation using fluorescence-labelled peptides as substrate at 0.06 uM after 90 mins by microfluidic peptide phosphorylation assay
Tyrosine-protein kinase BTK (Homo sapiens), sequence (Q06187 whole entry, the tested form may be a part): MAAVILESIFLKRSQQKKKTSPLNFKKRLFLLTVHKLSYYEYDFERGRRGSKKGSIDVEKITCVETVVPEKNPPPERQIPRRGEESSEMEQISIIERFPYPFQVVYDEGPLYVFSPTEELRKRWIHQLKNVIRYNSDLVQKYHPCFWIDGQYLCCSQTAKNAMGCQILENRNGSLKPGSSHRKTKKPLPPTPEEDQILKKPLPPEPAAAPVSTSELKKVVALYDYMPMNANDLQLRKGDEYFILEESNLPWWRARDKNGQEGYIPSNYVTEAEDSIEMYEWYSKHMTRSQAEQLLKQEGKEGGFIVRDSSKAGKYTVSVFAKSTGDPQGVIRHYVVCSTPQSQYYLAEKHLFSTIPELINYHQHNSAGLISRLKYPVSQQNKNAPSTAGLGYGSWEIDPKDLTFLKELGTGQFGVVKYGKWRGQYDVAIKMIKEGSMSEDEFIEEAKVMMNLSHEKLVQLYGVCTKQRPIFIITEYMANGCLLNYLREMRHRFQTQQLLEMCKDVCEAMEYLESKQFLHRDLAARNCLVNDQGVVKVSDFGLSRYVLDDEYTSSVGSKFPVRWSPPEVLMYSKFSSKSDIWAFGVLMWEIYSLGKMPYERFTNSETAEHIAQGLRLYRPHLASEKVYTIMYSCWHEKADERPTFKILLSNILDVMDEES

[10] = molecular target: Serine/threonine-protein kinase PAK 2 (Homo sapiens) (UniProt Q13177); experiment: Inhibition of human truncated PAK2 expressed in Escherichia coli cell assessed as substrate phosphorylation using fluorescence-labelled peptides as substrate at […] after 90 mins by microfluidic peptide phosphorylation assay
Serine/threonine-protein kinase PAK 2 (Homo sapiens), sequence (Q13177 whole entry, the tested form may be a part): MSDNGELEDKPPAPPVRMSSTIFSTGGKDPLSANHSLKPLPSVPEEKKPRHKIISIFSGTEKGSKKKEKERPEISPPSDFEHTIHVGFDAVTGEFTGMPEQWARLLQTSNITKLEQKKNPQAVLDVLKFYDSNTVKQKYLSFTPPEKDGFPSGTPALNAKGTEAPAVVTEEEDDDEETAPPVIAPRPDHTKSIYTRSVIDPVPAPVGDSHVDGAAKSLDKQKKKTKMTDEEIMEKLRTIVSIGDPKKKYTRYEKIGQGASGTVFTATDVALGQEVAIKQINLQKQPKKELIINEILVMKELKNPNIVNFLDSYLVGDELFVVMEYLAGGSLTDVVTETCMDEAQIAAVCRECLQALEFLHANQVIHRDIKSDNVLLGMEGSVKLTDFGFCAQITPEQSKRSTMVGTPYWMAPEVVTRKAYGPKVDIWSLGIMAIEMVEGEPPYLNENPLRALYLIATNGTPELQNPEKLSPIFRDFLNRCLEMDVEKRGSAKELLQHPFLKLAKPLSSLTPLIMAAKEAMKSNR

[11] = molecular target: Glycogen synthase kinase-3 beta (Homo sapiens) (UniProt P49841); experiment: Inhibition of human full length GSK-3 beta expressed in baculovirus assessed as substrate phosphorylation using fluorescence-labelled peptides as substrate at […] after 90 mins by microfluidic peptide phosphorylation assay
[12] = molecular target: Casein kinase I isoform alpha (Homo sapiens) (UniProt P48729); experiment: Inhibition of human full length CSNK1A1 expressed in baculovirus assessed as substrate phosphorylation using fluorescence-labelled peptides as substrate at 420 uM after 90 mins by microfluidic peptide phosphorylation assay
Casein kinase I isoform alpha (Homo sapiens), sequence (P48729 2-337 limits assumed): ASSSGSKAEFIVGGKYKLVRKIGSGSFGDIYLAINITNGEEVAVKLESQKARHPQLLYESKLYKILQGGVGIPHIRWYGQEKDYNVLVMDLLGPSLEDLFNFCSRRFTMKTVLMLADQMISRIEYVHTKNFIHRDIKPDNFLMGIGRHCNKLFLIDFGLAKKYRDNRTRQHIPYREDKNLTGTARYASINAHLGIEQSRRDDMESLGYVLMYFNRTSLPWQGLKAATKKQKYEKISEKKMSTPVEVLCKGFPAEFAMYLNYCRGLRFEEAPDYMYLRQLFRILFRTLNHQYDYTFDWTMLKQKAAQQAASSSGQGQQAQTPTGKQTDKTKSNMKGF

[13] = system: Tyrosine-protein kinase ABL1 (Homo sapiens), P00519 [T315I]; experiment: Inhibition of human truncated ABL T315I mutant expressed in baculovirus assessed as substrate phosphorylation using fluorescence-labelled peptides as substrate at 420 uM after 90 mins by microfluidic peptide phosphorylation assay
[14] = molecular target: Aurora kinase B (Homo sapiens) (UniProt Q96GD4); experiment: Inhibition of human full length AurB expressed in baculovirus assessed as substrate phosphorylation using fluorescence-labelled peptides as substrate at 420 uM after 90 mins by microfluidic peptide phosphorylation assay
Aurora kinase B (Homo sapiens), sequence (Q96GD4 whole entry, the tested form may be a part): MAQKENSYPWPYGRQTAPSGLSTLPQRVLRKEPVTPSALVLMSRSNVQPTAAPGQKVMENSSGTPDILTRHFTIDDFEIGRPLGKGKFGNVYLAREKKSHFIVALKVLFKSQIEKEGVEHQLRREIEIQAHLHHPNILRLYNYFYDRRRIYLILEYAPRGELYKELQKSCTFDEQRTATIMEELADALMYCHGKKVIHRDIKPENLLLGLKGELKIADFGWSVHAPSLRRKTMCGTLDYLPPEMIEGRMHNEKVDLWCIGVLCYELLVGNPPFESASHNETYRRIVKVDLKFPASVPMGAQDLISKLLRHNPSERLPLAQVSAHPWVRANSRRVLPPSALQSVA

[15] = molecular target: Tyrosine-protein kinase Fer (Homo sapiens) (UniProt P16591); experiment: Inhibition of human FER catalytic domain expressed in baculovirus assessed as substrate phosphorylation using fluorescence-labelled peptides as substrate at 9 uM after 90 mins by microfluidic peptide phosphorylation assay
Tyrosine-protein kinase Fer (Homo sapiens), sequence (P16591 whole entry, looked up, the tested form may be a part): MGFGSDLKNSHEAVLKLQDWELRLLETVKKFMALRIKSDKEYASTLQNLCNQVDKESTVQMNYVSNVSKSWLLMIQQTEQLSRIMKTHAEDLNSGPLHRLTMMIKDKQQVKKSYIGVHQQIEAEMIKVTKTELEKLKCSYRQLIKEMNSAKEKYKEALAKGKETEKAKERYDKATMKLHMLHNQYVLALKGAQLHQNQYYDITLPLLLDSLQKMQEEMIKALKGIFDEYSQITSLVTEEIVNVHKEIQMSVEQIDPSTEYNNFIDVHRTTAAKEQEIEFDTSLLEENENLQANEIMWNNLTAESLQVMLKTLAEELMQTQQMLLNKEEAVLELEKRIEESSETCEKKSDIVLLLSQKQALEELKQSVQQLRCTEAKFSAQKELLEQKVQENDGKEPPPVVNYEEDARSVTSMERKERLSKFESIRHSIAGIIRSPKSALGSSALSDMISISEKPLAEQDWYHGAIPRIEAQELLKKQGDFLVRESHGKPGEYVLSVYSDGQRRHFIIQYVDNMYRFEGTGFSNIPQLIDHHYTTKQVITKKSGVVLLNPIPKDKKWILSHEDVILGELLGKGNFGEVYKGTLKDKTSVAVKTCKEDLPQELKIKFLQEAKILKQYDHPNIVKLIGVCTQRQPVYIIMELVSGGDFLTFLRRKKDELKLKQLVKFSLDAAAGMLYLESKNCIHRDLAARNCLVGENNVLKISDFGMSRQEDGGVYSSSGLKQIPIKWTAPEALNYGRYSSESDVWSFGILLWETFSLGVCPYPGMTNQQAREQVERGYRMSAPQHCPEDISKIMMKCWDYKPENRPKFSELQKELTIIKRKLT

[16] = molecular target: Serine/threonine-protein kinase pim-1 (Homo sapiens) (UniProt P11309); experiment: Inhibition of human full length PIM1 expressed in baculovirus assessed as substrate phosphorylation using fluorescence-labelled peptides as substrate at 70 uM after 90 mins by microfluidic peptide phosphorylation assay
[17] = molecular target: Protein kinase C beta type (Homo sapiens) (UniProt P05771); experiment: Inhibition of human full length PKC beta2 expressed in baculovirus assessed as substrate phosphorylation using fluorescence-labelled peptides as substrate at 70 uM after 90 mins by microfluidic peptide phosphorylation assay

Protein kinase C beta type (Homo sapiens), sequence (P05771 2-671 limits assumed): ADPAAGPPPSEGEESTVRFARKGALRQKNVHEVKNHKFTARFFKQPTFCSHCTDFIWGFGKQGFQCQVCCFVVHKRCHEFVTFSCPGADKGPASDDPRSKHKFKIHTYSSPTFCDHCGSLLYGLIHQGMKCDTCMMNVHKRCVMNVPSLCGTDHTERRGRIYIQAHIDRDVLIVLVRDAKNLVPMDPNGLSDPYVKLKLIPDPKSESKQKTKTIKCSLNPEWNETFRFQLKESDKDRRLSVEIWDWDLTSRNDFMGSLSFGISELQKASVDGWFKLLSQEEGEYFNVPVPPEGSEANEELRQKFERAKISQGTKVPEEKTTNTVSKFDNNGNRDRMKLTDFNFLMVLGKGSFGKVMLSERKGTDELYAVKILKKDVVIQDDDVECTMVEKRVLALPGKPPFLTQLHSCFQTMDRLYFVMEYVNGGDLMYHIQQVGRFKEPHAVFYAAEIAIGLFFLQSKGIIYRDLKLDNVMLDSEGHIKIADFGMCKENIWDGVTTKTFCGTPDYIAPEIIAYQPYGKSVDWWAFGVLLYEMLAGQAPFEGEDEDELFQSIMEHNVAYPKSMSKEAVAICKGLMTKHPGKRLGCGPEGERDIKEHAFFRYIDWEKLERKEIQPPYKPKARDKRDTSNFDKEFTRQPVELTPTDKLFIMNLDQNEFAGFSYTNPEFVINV

Question: Which inhibition [1] does the source give for `NCCc1ccc(-c2ncnc3[nH]cnc23)cc1` here?
Answer: Its inhibition is 77%.

Question: `Clc1ccc(C2(c3ccc(-c4ncnc5[nH]cnc45)cc3)CCNCC2)cc1` was tested. Which inhibition [2] did it give?
Answer: The inhibition was 4.5%.

Question: What about the inhibition [3] of the same compound?
Answer: The inhibition was 10%.

Question: For `NCC1CCN(c2ncnc3[nH]ccc23)CC1`, which inhibition [4] is on record?
Answer: The inhibition was 3%.

Question: What about the inhibition [5] of the same compound?
Answer: Its inhibition is 0%.

Question: `NC1CCN(c2ncnc3[nH]ccc23)CC1` was tested. Which inhibition [6] did it give?
Answer: The inhibition was 2%.

Question: Which results are given for `c1cnc2[nH]ccc2c1`?
Answer: inhibition [7]: 52%; inhibition [8]: 65%

Question: How did the inhibition [9] turn out when `NC1(Cc2ccc(Cl)cc2)CCN(c2ncnc3[nH]ccc23)CC1` was run?
Answer: The inhibition was 0%.

Question: What does the source list for `COC(=O)c1cnc(Nc2cnc(C#N)cn2)cc1NCC1CCNCC1`?
Answer: inhibition [10]: 1.5%; inhibition [11]: 3.5%

Question: For `c1nc(N2CCOCC2)c2nc[nH]c2n1`, which inhibition [12] is on record?
Answer: The inhibition was 60.5%.

Question: And the inhibition [13]?
Answer: The inhibition was 73%.

Question: What about the inhibition [14] of the same compound?
Answer: Its inhibition is 96%.

Question: For `NCC1CN(c2ncnc3[nH]c4cnccc4c23)CCO1` (configuration not stated), which inhibition [15] is on record?
Answer: Its inhibition is 11%.

Question: For `CNCc1ccc(-c2ncnc3[nH]cnc23)cc1`, which inhibition [16] is on record?
Answer: Its inhibition is 26%.

Question: What about the inhibition [17] of the same compound?
Answer: The inhibition was 0%.
